What follows are compounds tested against T1, N-terminally GST-tagged human full length recombinant Mps-1 kinase (Homo sapiens, UniProt P33981) (assay: Mps-1 kinase assay (TR-FRET)). Conditions: Mps1 IC50 [nM], 10 μM ATP, 1 μM peptide substrate, 60 min at 22° C.
T1 construct: N-terminally GST-tagged human full length recombinant Mps-1 kinase; purchased Invitrogen, Karslruhe, Germany PV4071
T1 sequence (P33981 1-857): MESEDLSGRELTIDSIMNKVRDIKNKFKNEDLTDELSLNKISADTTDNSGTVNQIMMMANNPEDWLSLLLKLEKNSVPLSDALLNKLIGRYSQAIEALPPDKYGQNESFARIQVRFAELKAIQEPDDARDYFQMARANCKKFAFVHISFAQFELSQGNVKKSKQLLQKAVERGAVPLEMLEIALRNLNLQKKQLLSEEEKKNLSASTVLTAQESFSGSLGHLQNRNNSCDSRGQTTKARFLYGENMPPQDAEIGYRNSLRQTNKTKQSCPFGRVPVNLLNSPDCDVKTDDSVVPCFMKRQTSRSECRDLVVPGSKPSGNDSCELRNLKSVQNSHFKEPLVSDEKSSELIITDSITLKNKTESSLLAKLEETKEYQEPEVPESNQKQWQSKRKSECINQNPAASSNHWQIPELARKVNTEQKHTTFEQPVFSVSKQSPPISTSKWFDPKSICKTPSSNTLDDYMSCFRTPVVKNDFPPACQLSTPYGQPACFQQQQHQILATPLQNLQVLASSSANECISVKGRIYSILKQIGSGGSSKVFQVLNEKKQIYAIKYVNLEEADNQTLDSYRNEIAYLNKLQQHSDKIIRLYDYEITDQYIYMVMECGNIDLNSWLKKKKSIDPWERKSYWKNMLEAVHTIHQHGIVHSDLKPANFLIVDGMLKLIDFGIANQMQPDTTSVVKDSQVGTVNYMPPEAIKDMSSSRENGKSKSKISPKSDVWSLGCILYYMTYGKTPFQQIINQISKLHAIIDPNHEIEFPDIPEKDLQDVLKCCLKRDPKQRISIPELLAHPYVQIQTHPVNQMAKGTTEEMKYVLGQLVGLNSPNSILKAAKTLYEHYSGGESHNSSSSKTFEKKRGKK
Format: biochemical
How it was run: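 Compounds were tested against recombinant full-length Mps-1 bearing an N-terminal GST tag, about 1 nM final, with a biotinylated amide-capped peptide as substrate. Detection reagents were then bound for 1 h at 22° C and the product read by TR-FRET.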

Q: Which IC50 does the source give for `COc1ccccc1Nc1cc(NCCC(F)(F)F)c2ncc(-c3ccc(C(=O)NC4CC4)c(C)c3)n2n1` [Example 388, N-cyclopropyl-4-{6-[(2-methoxyphenyl)amino]-8-[(3,3,3-trifluoropropyl)amino]imidazo[1,2-b]pyridazin-3-yl}-2-methylbenzamide] here?
A: Its IC50 is 0.4 nM.

Q: With `CNC(=O)c1cccc(-c2cc(NCC(C)C)c3ncc(-c4ccc(C(=O)NC5CC5)cc4)n3n2)c1` [Example 119, 3-{3-[4-(Cyclopropylcarbamoyl)phenyl]-8-[(2-methylpropyl)amino]imidazo[1,2-b]pyridazin-6-yl}-N-methylbenzamide] as the compound, how does the IC50 read?
A: The IC50 was under 1 nM.

Q: Which IC50 does the source give for `CCNC(=O)c1ccc(-c2cnc3c(NCC4CCOCC4)cc(Oc4ccc(OC)cc4)nn23)cc1C` [Example 597, N-ethyl-4-{6-(4-methoxyphenoxy)-8-[(tetrahydro-2H-pyran-4-ylmethyl)a-mino]imidazo[1,2-b]pyridazin-3-yl}-2-methylbenzamide] here?
A: The IC50 was 1.1 nM.

Q: `CNC(=O)c1ccc(-c2cnc3c(NCCN4CCOCC4)cc(Oc4ccc(OC)cc4F)nn23)cc1C` [Example 565, 4-[6-(2-fluoro-4-methoxyphenoxy)-8-{[2-(morpholin-4-yl)ethyl]amino}imidazo[1,2-b]pyridazin-3-yl]-N,2-dimethylbenzamide] was tested. Which IC50 did it give?
A: The IC50 was 3.5 nM.

Q: With `CC(C)CNc1cc(-c2ccc3nccn3c2)nn2c(-c3ccc(C(=O)NC4CC4)cc3)cnc12` [Example 145, N-cyclopropyl-4-{6-(imidazo[1,2-a]pyridin-6-yl)-8-[(2-methylpropyl)amino]imidazo[1,2-b]pyridazin-3-yl}benzamide] as the compound, how does the IC50 read?
A: Its IC50 is under 1 nM.

Q: How did the IC50 turn out when `Cc1cc(-c2cnc3c(NCC(C)(C)O)cc(-c4cccnc4)nn23)ccc1C(=O)NC1CC1` [Example 156, N-cyclopropyl-4-{8-[(2-hydroxy-2-methylpropyl)amino]-6-(pyridin-3-yl)imidazo[1,2-b]pyridazin-3-yl}-2-methylbenzamide] was run?
A: Its IC50 is 5.1 nM.

Q: For `Cc1cc(-c2cnc3c(NCC4CNC4)cc(Oc4cncc(F)c4)nn23)ccc1C(=O)NC1CC1` [Example 544, 4-{8-[(azetidin-3-ylmethyl)amino]-6-[(5-fluoropyridin-3-yl)oxy]imidazo[1,2-b]pyridazin-3-yl}-N-cyclopropyl-2-methylbenzamide], which IC50 is on record?
A: Its IC50 is 1.1 nM.

Q: With `Cc1cc(-c2cnc3c(NC[C@H]4CC[S@+]([O-])CC4)cc(Sc4cccc(F)c4)nn23)ccc1C(=O)NC1CC1` [Example 304B, N-cyclopropyl-4-(6-[(3-fluorophenyl)sulfanyl]-8-({[(trans)-1-oxidotetrahydro-2H-thiopyran-4-yl]methyl}amino)imidazo[1,2-b]pyridazin-3-yl)-2-methylbenzamide] as the compound, how does the IC50 read?
A: The IC50 was 0.1 nM.

Q: Which IC50 does the source give for `Cc1cc(-c2cnc3c(NCC(C)(C)O)cc(Oc4cccc(F)c4F)nn23)ccc1C(=O)NC1CC1` [Example 92, N-cyclopropyl-4-{6-(2,3-difluorophenoxy)-8-[(2-hydroxy-2-methylpropyl)amino]imidazo[1,2-b]pyridazin-3-yl}-2-methylbenzamide] here?
A: The IC50 was 0.2 nM.

Q: How did the IC50 turn out when `CC(C)CNc1cc(-c2ccccc2F)nn2c(-c3ccc(C(=O)NC4CC4)cc3)cnc12` [Example 132, N-cyclopropyl-4-{6-(2-fluorophenyl)-8-[(2-methylpropyl)amino]imidazo[1,2-b]pyridazin-3-yl}benzamide] was run?
A: Its IC50 is 1.5 nM.

Q: How did the IC50 turn out when `Cc1cc(-c2cnc3c(NCC(C)(C)O)cc(Sc4cc(F)cc(F)c4)nn23)ccc1C(=O)NC1CC1` [Example 68, N-cyclopropyl-4-{6-[(3,5-difluorophenyl)sulfanyl]-8-[(2-hydroxy-2-methylpropyl)amino]imidazo[1,2-b]pyridazin-3-yl}-2-methylbenzamide] was run?
A: The IC50 was under 0.1 nM.

Q: `CC(C)CNc1cc(-c2ccsc2)nn2c(-c3ccc(C(=O)NC4CC4)cc3)cnc12` [Example 122, N-cyclopropyl-4-{8-[(2-methylpropyl)amino]-6-(thiophen-3-yl)imidazo [1,2-b]pyridazin-3-yl} benzamide] was tested. Which IC50 did it give?
A: The IC50 was 2.9 nM.

Q: `Cc1cc(F)cc(Sc2cc(NCCC(F)(F)F)c3ncc(-c4ccc(C(=O)NC5CC5)c(C)c4)n3n2)c1` [Example 79, N-cyclopropyl-4-{6-[(3-fluoro-5-methylphenyl)sulfanyl]-8-[(3,3,3-trifluoropropyl)amino]imidazo[1,2-b]pyridazin-3-yl}-2-methylbenzamide] was tested. Which IC50 did it give?
A: The IC50 was 0.7 nM.

Q: For `Cc1cc(-c2cnc3c(NCCN4CCOCC4)cc(Oc4ccc(F)c(F)c4)nn23)ccc1C(=O)NC1CC1` [Example 540, N-cyclopropyl-4-[6-(3,4-difluoro-phenoxy)-8-{[2-(morpholin-4-yl)ethyl]amino}imidazo[1,2-b]pyridazin-3-yl]-2-methyl-benzamide], which IC50 is on record?
A: Its IC50 is 0.1 nM.

Q: How did the IC50 turn out when `Cc1cc(-c2cnc3c(NCC(C)(C)O)cc(Sc4ccc(F)c(F)c4)nn23)ccc1C(=O)NC1CC1` [Example 300, N-cyclopropyl-4-{6-[(3,4-difluorophenyl)sulfanyl]-8-[(2-hydroxy-2-methylpropyl)amino]imidazo[1,2-b]pyridazin-3-yl}-2-methylbenzamide] was run?
A: The IC50 was 0.8 nM.

Q: For `CCNC(=O)c1ccc(-c2cnc3c(NCC4CCOCC4)cc(Oc4ccc(OC)cc4F)nn23)cc1C` [Example 598, N-ethyl-4-{6-(2-fluoro-4-methoxyphenoxy)-8-[(tetrahydro-2H-pyran-4-ylmethyl)a-mino]imidazo[1,2-b]pyridazin-3-yl}-2-methylbenzamide], which IC50 is on record?
A: Its IC50 is under 1 nM.

Q: `CC(=O)Nc1ccncc1Oc1cc(NCCC(F)(F)F)c2ncc(-c3ccc(C(=O)NC4CC4)c(C)c3)n2n1` [Example 476, 4-(6-{[4-(acetylamino)pyridin-3-yl]oxy}-8-[(3,3,3-trifluoropropyl)amino]imidazo[1,2-b]pyridazin-3-yl)-N-cyclo-propyl-2-methyl-benzamide] was tested. Which IC50 did it give?
A: Its IC50 is 10.3 nM.

Q: How did the IC50 turn out when `COc1ccc(Nc2cc(NCC(C)(C)O)c3ncc(-c4ccc(C(=O)NC5CC5)c(C)c4)n3n2)cn1` [Example 366, N-cyclopropyl-4-{8-[(2-hydroxy-2-methylpropyl)amino]-6-[(6-methoxypyridin-3-yl)-amino]imidazo[1,2-b]pyridazin-3-yl}-2-methylbenzamide] was run?
A: The IC50 was 1.1 nM.

Q: Which IC50 does the source give for `COc1ccc(Oc2cc(NCCS(C)(=O)=O)c3ncc(-c4ccc(C(=O)NC5CC5)c(C)c4)n3n2)cc1F` [Example 518, N-cyclopropyl-4-[6-(3-fluoro-4-methoxyphenoxy)-8-{[2-(methylsulfonyl)ethyl]amino}imidazo [1,2-b]pyridazin-3-yl]-2-methylbenzamide] here?
A: The IC50 was 0.1 nM.

Q: Which IC50 does the source give for `CSc1cc(NCc2ccnn2C)c2ncc(-c3ccc(C(=O)NC4CC4)c(C)c3)n2n1` [Example 237, N-cyclopropyl-2-methyl-4-[8-{[(1-methyl-1H-pyrazol-5-yl)methyl]amino}-6-(methylsulfanyl)imidazo[1,2-b]pyridazin-3-yl]benzamide] here?
A: Its IC50 is 5.6 nM.

Q: Which IC50 does the source give for `Cc1cc(-c2cnc3c(NCC(C)(C)O)cc(Nc4cc(F)cc(F)c4)nn23)ccc1C(=O)NC1CC1` [Example 351, N-cyclopropyl-4-{6-[(3,5-difluorophenyl)amino]-8-[(2-hydroxy-2-methylpropyl)amino]imidazo[1,2-b]pyridazin-3-yl}-2-methylbenzamide] here?
A: The IC50 was 1 nM.

Q: For `Cc1cc(-c2cnc3c(NCCC(F)(F)F)cc(Nc4cccc(Cl)c4)nn23)ccc1C(=O)NC1CC1` [Example 379, 4-{6-[(3-chlorophenyl)amino]-8-[(3,3,3-trifluoropropyl)amino]imidazo[1,2-b]pyridazin-3-yl}-N-cyclopropyl-2-methylbenzamide], which IC50 is on record?
A: Its IC50 is 0.2 nM.

Q: `Cc1cccc(-c2cc(NCC(C)C)c3ncc(-c4ccc(C(=O)NC5CC5)cc4)n3n2)c1` [Example 105, N-cyclopropyl-4-{6-(3-methylphenyl)-8-[(2-methylpropyl)amino]imidazo[1,2-b]pyridazin-3-yl}benzamide] was tested. Which IC50 did it give?
A: The IC50 was 3.5 nM.

Q: How did the IC50 turn out when `Cc1cc(-c2cnc3c(NCCC(C)(C)O)cc(-c4ccccc4CO)nn23)ccc1C(=O)NC1CC1` [Example 341, N-cyclopropyl-4-{8-[(3-hydroxy-3-methylbutyl)amino]-6-[2-(hydroxy-methyl)phenyl]imidazo[1,2-b]pyridazin-3-yl}-2-methylbenzamide] was run?
A: Its IC50 is 10.6 nM.

Q: Which IC50 does the source give for `CC(C)CNc1cc(Cl)nn2c(-c3ccc(C(N)=O)cc3)cnc12` [Example 176, 4-{6-Chloro-8-[(2-methylpropyl)amino]imidazo[1,2-b]pyridazin-3-yl}benzamide] here?
A: The IC50 was 465 nM.

Q: `Cc1cc(-c2cnc3c(NCC4(C)CCCO4)cc(-c4ccncc4)nn23)ccc1C(=O)NC1CC1` (racemic) [Example 30, (RS)—N-cyclopropyl-2-methyl-4-[8-{[(2-methyltetrahydrofuran-2-yl)methyl]amino}-6-(pyridin-4-yl)imidazo[1,2-b]pyridazin-3-yl]benzamide] was tested. Which IC50 did it give?
A: The IC50 was 2.1 nM.

From patent US9255100B2 (BAYER INTELLECTUAL PROPERTY GMBH, priority 2010, dated 2016)
